Test system: P. falciparum 3D7 growth, pLDH absorbance
Assay: blood-stage malaria parasite growth potency – strain 3D7, dose response (AID 2305)

SMILES | IC50
COc1nc(NCC(C)C)nc(Oc2ccc(=O)n(Cc3ccccc3)n2)n1 | 630 nM
O=C(NC1CCC(CN2CCC(c3c[nH]c4ccccc34)CC2)CC1)c1cc2cccc([N+](=O)[O-])c2[nH]1 (centres undefined) | 340 nM
CCN(CCCN1CCCCC1)c1cc(C)nc(Nc2cccc3c2CCCC3)n1 | 1030 nM
O=C(C=Cc1ccc(Cl)c(Cl)c1)NCCCCCN1CCC(CCCNC(=O)/C=C/c2ccccc2)CC1 | 590 nM
COCCN1CCC(C(=O)NCC(C)(C)c2nc(-c3ccc(Br)c(O)c3)c(-c3ccncc3)[nH]2)CC1 | 910 nM
O=C(CCc1nc2c(cnn2-c2ccccc2)c(=O)[nH]1)NC1CCSc2ccccc21 (centres undefined) | 1060 nM
N#Cc1ccc2c(c1)CN(CCC1CCC(NC(=O)c3cc4ccccc4cc3N)CC1)CC2 (centres undefined) | 1040 nM
COc1ccc2nccc(NC(=O)C3CCC(NCc4cnc(SC)c([N+](=O)[O-])c4)CC3)c2n1 (centres undefined) | 930 nM
Cc1cccc(-c2nc(Nc3ccncc3)c3ccc([N+](=O)[O-])cc3n2)n1 | 830 nM
COCCN(C)CCCOc1cc2c(cc1OC)ncn2-c1cc(OCc2ccccc2C(F)(F)F)c(C(N)=O)s1 | 710 nM
CCCC(C)Nc1nc(C)cc(N[C@@H](CC(C)C)C(=O)Nc2ccc(OC)cc2)n1 (some centres undefined) | 870 nM
O=C(Nc1cccc(-c2csc(-c3nc4ccccc4[nH]3)c2)c1)c1cccnc1 | 230 nM
Cc1ccc(-n2cc(CNCC3CCN(CCO)CC3)c(-c3ccc(F)cc3)n2)cc1 | 2000 nM
Nc1c(Cl)cc(C(O)CNCCCCCCOCCC=C2CCOCC2)cc1Cl (centres undefined) | 630 nM
Clc1ccccc1OCc1ccccn1 | 990 nM
COc1ccc(NC(=O)c2cn(-c3ccc(C(C)(C)C)cc3)nc2C)cc1N1CCN(C)CC1 | 950 nM
COc1ccc(O)c(C(=O)c2cc(C(=O)NCCc3ccccc3)c(=O)n(CCc3ccccc3)c2)c1 | 1010 nM
CC1(CCc2ccccc2)N=C(N)N(Cc2ccccc2)C(=O)C1c1ccc(Cl)c(Cl)c1 (centres undefined) | 810 nM
COc1ccc2c(=O)c(I)c(C)[nH]c2c1 | 440 nM
CN(Cc1ccc(-c2ccc(C(F)(F)F)cc2)cc1)C(=O)Cn1c(CCc2cccc(F)c2F)nc(=O)c2ccc(N3CCN(CCN4CCCCC4)CC3)nc21 | 760 nM
COc1cc(C(=O)NC2CCC(CN3CCC(c4c[nH]c5ccccc45)CC3)CC2)cc(Cl)n1 (centres undefined) | 690 nM
Cc1cc(Nc2ccccc2)nc(Nc2ccccc2C)n1 | 1040 nM
COc1cc(N(C)Cc2cnc3nc(N)nc(N)c3n2)cc(OC)c1OC | 440 nM
CC(C)c1ccc(NC(=O)c2cccc(CN3CCCN(Cc4cccc(O)c4)CC3)c2)cc1 | 770 nM
COc1ccc(Nc2cc(C)nc(Nc3ccc(NC(C)=O)cc3)n2)cc1 | 860 nM

SMILES | IC50
COc1cc(CNCCCCCCNCc2cc(OC)c3ccccc3c2OC)c(OC)c2ccccc12 | 700 nM
CC(C(=O)N1CCCC1)N1CCN(C(c2ccccc2)c2ccccc2)CC1 (centres undefined) | 1100 nM
OC(CNc1ccnc(Nc2cccc(Cl)c2)n1)c1ccc(C(F)(F)F)cc1 (centres undefined) | 770 nM
CCN(CC)CCN(Cc1ccc(-c2ccc(C(F)(F)F)cc2)nc1)C(=O)Cn1cc(Cc2cnn(C)c2)c(=O)n2nc(-c3ccccc3)cc12 | 990 nM
Cc1cc(NCCc2ccccc2)nc(NC(=NCC(=O)OC(C)(C)C)Nc2ccc(C(F)(F)F)cc2)n1 | 330 nM
FC(F)(F)c1ccc2nccc(NN=Cc3ccccc3)c2c1 | 1170 nM
O=C(C1CCCCC1)N1CCOC(CCN2CCC(c3ccccc3)CC2)(c2ccc(Cl)c(Cl)c2)C1 (centres undefined) | 930 nM
COc1cc2nc(NCCN3CCOCC3)n3nc(-c4ccccc4)nc3c2cc1OC | 220 nM
N#Cc1cc(C(=O)c2cc(Br)ccc2O)cn(-c2cc(Cl)cc(Cl)c2)c1=O | 880 nM
Cc1cc(Nc2ccc(Oc3ccc(Cl)cc3)cc2)nc(N)n1 | 620 nM
CC1CCCCN1CCCNc1ncc2c(-c3ccc(NC(=O)Nc4cc(C(F)(F)F)ccc4F)c(F)c3)nn(C)c2n1 (centres undefined) | 260 nM
Cc1cc(I)ccc1Nc1nc2nonc2nc1Nc1ccc(I)cc1C | 510 nM
CN(CC(=O)N1CCN(S(=O)(=O)c2cccc(Cl)c2)CC1CN1CCCC1)c1ccc(Cl)c(Cl)c1 (centres undefined) | 1240 nM
CC(=O)Nc1ncc(C(=O)Nc2cccc(-c3ccc(-c4nc5ccc(C(F)(F)F)cc5[nH]4)cc3)c2)s1 | 590 nM
Cc1ccc(S(=O)(=O)N(CCCN2CCN(C)CC2)Cc2csc(-c3ccc(CNCc4ccccc4)cc3)n2)cc1 | 840 nM
CN(C)c1ccc2c(c1)Sc1cc(N(C)C)ccc1N2C(=O)c1cccc(C(=O)O)c1 | 180 nM
COc1ccc2nccc([C@@H](O)CN3CCC(NCc4cc5oc(=O)[nH]c5cc4F)CC3)c2c1 | 770 nM
c1ccc(CNCc2cccc(-c3ccc(-c4nc5ccccc5[nH]4)s3)c2)cc1 | 820 nM
Cc1[nH]c(C)c(-c2ccc(Oc3cc(Cl)cc(Cl)c3)cc2)c(=O)c1Cl | 520 nM
COc1cc(C)c(NC(=O)c2cccc3c(=O)c(C)c(-c4ccccc4)oc23)cc1OC | 1630 nM
CCC(=O)c1cc(C(=O)NCCc2cccc(OC)c2)ccc1OC | 900 nM
O=C(CN1CCN(C(C(=O)Nc2cc(C(F)(F)F)ccc2Cl)c2ccccc2)CC1)NC1CC1 (centres undefined) | 440 nM
COc1ccc2nccc(N3CCC(CCNCc4ccc5c(n4)NC(=O)CS5)CC3)c2c1 | 210 nM
Cc1ccc2c(c1[N+](=O)[O-])N=NCC2Oc1ccccc1 (centres undefined) | 870 nM

Source: PubChem BioAssay AID2305 (GlaxoSmithKline (GSK), 2010)
